Entries after “also recorded” stand apart in the source; their conditions may differ.
Key:
[1] = target: T1, recombinant human mGlu7 receptor (Homo sapiens, UniProt Q14831); experiment: NAM mGlu7 activity, forskolin-induced cAMP (HTRF) in T-REx 293 cell line; format: cell-based; details: forskolin-stimulated cAMP response, 5 µM LSP4-2022 (EC80), T-REx 293 human mGlu7; for Inhibition (%): 10 μM compound
T1 construct: expressed in transfected cells; host or cells: T-REx 293 (tetracycline-inducible)
Protocol: The cell lines with the tetracycline-inducible expression of human metabotropic receptors 4, 7, and 8 were described in detail by Chruścicka et al. (mGlu4 receptor NM_000841, mGlu7 receptor NM_000844.2, and mGlu8 receptor NM_000845). Cells were grown under standard cell culture conditions (37 °C, 5% CO2) in DMEM supplemented with 10% tetracycline-free FBS. The expression was induced through the addition of tetracycline to the culture medium at 0.75 μg/mL.
The determination of the intracellular cAMP through homogeneous time-resolved fluorescence (HTRF) was described in detail previously. Briefly, 48 h before the experiments, the expression of the receptor was induced through the addition of tetracycline to the culture medium; the next day, FBS and L-Glu were removed from the medium. Just before the cAMP measurement, the cells were detached and centrifuged. Then, the cell suspension in Hanks-HEPES (130 mM NaCl, 5.4 mM KCl, 1.8 mM CaCl2, 0.8 mM MgSO4, 0.9 mM NaH2PO4, 20 mM HEPES, and 3.25 mM glucose; pH 7.4) was incubated in the presence of 10 µM forskolin (mGlu7 receptor, 3 µM forskolin), the agonist LSP4-2022 or L-Glu (for mGlu4 and mGlu8), and a compound for 5 min. The intracellular concentration of cyclic AMP was measured by means of a cAMP Gi HTRF kit from Cisbio, according to the manufacturer’s instructions. After 1 h of incubation at room temperature, the fluorescence at 620 nm and 665 nm was read (Tecan Infinite M1000). The results were calculated as the 665 nm/620 nm ratio multiplied by 10^4. Each sample was prepared in triplicate. Data were analyzed using GraphPad Prism version 5.04 for Windows (GraphPad Software, San Diego, USA).
The activity of the compounds was examined in the T-REx 293-cell-line-expressing recombinant human mGlu7 receptor by detecting the level of cyclic AMP in the presence of 5 µM forskolin [7, 41]. […] The substances were incubated with 5 µM LSP4-2022 (EC80).
Firstly, all compounds were screened at 10 μM using three cell lines expressing the mGlu4/7/8 receptor to evaluate selectivity. For the mGlu4 and mGlu8 receptors, glutamic acid was used as an agonist and had good potency. […] VU0155041 and AZ12216052 were used as reference compounds for the mGlu4 and mGlu8 receptors, respectively. The parameter described as “% of inhibition” was introduced to compare the bioactivity of the new compounds to the reference NAM at a 10 μM concentration in the presence of 5 μM LSP4-2022 (0%) and 3 μM forskolin (100%). […] For compounds that passed the screening procedure, the dose–response curve in the presence of LSP4-2022 in 5 μM was evaluated compared to reference NAM ADX71743. Only compounds ALX-063, ALX-065, and ALX-171 (Figure S3, Supplementary Materials) met our conditions regarding bioactivity. All of them were further investigated to determine the EC50 and receptor selectivity. […]
2.1. NAM mGlu7 receptor activity on T-Rex 293 cell line
The activity of compounds was examined on T-REx 293 cell line expressing recombinant human mGlu7 receptor by detecting the level of cyclic AMP in the presence of 5 µM forskolin [14,15]. The cell line was […]
incubated with 5 µM of LSP4-2022 (EC80).

[2] = target: T1, recombinant human mGlu7 receptor; experiment: as above; format: cell-based
[3] = system: animal models of schizophrenia; details: mGlu7 PAM; cited from earlier work

T1 sequence (Q14831 35-915): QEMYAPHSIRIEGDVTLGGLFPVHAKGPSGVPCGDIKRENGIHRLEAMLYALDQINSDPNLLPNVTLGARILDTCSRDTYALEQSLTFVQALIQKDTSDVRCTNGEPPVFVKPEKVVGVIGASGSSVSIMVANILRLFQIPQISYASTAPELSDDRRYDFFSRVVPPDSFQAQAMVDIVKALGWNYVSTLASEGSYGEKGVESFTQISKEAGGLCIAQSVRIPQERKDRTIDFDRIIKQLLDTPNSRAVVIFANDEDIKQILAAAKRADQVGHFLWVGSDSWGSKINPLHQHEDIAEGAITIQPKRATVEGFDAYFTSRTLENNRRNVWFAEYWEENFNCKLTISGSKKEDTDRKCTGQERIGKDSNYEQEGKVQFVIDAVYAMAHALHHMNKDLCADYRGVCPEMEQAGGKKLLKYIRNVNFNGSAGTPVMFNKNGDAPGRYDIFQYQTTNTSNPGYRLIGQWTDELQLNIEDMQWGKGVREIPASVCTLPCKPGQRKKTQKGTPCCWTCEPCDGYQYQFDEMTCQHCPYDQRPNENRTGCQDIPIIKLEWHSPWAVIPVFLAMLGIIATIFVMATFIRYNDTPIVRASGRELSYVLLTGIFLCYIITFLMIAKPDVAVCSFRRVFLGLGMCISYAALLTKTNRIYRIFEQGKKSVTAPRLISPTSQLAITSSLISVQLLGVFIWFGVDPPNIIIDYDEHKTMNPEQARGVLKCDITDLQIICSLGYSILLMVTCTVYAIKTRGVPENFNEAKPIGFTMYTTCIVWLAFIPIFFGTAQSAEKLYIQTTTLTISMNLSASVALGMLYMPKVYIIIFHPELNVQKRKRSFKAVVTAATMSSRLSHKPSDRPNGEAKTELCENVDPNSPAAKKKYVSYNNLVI

Row | Inhibition (%) [1] | SMILES | further results
1 | Inactive | COc1ccc(OC)c(-c2ccc3nc(-c4ccccc4Cl)n(C)c(=O)c3c2)c1 [A9-10] | 
2 |  | Cn1c(-c2ccccc2)nc2ccc(-c3ccccc3)cc2c1=O [ALX-063, 3-methyl-2,6-diphenylquinazolin-4(3H)-one] | inhibition at 10 µM ([1]; T-REx-293, 10 μM compound): 42.5 ± 36.5%; IC50 ([2]; T-REx 293 cells expressing human mGlu7, 5 µM LSP4-2022 (EC80), 5 µM forskolin): 6.5 µM
3 |  | N[C@@H](CCC(=O)O)C(=O)O [L-Glu] | agonist potency at mGlu7 receptor ([2]; agonist compared with LSP4-2022): ~ 1 mM
4 | Inactive | COc1cc(OC)cc(-c2ccc3nc(-c4ccccc4Cl)n(C)c(=O)c3c2)c1 [A9-11] | 
5 | Inactive | COc1ccc(-c2ccc3nc(-c4ccccc4Cl)n(C)c(=O)c3c2)c(OC)c1 [A9-8] | 
6 | Inactive | COc1cccc(-c2ccc3nc(-c4ccccc4Cl)n(C)c(=O)c3c2)c1 [A9-5] | 
7 |  | c1ccc(C(NCCNC(c2ccccc2)c2ccccc2)c2ccccc2)cc1 [AMN082] | activity in animal models [3]: propsychotic activity
8 | Inactive | COc1ccc(-c2ccc3nc(-c4ccccc4Cl)n(C)c(=O)c3c2)cc1OC [A9-9] | 
9 | Inactive | COc1cccc(OC)c1-c1ccc2nc(-c3ccccc3Cl)n(C)c(=O)c2c1 [A9-12] | 
10 | Inactive | COc1ccccc1-c1ccc2nc(-c3ccccc3Cl)n(C)c(=O)c2c1 [A9-4] | 
11 | not observed; also recorded: Inactive | COc1ccc(-c2ccc3nc(-c4ccccc4Cl)n(C)c(=O)c3c2)cc1 [A9-6] | 

Source: paper PMC9916658, “Design and Synthesis of New Quinazolin-4-one Derivatives with Negative mGlu7 Receptor Modulation Activity and Antipsychotic-Like Properties” (International Journal of Molecular Sciences, 2023)
